# Patent US20050245399A1, “Pyrazole derivatives as herbicidal compositions containing them” (ISHIHARA SANGYO KAISHA, LTD., priority 2004, published 2005)
# Columns and labels:
# Assay type in all cases: in vivo
# [1] = test system: velvetleaf (Abutilon theophrasti): ABUTH; experiment: Test Example 1 pre-emergence herbicidal activity, ABUTH; conditions: visually observed 20th to 23rd day after application
# Outline: (§1)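 Upland soil pot test. Formulated compound (wettable powder or emulsifiable concentrate) in water, 500 L/ha, sprayed one day after sowing before emergence; % control rated by eye on day 20–23.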
# [2] = test system: soybean (Glycine max Merr.), GLXMA; experiment: Test Example 2 post-emergence (foliage treatment) herbicidal activity, GLXMA; conditions: 63 g a.i./ha
# Outline: (§2)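 Each species was evaluated for growth suppression by eye, 0% matching untreated and 100% meaning death, some 20 to 23 days after a single post-emergence foliar treatment applied in 500 L/ha of water carrying 0.1% (v/v) agricultural spreader.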
# [3] = test system: corn (Zea mays L.): ZEAMX; experiment: Test Example 1 pre-emergence herbicidal activity, ZEAMX; conditions: visually observed 20th to 23rd day after application
# Outline: as §1
# [4] = test system: prickly sida (Sida spinosa L.), SIDSP; experiment: Test Example 2 post-emergence (foliage treatment) herbicidal activity, SIDSP; conditions: 63 g a.i./ha
# Outline: as §2
# [5] = test system: rice (Oryza sativa L.: ORYSA); experiment: Test Example 3 water application herbicidal activity (paddy), transplanted rice ORYSA; conditions: 63 g a.i./ha, water application 4th day after transplantation of 2 leaf stage rice, visually observed 21st day after application; 0 = untreated control, 100 = complete kill
# Outline: (§3)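 Compound, as diluted wettable powder or emulsifiable concentrate, was pipetted into flood water at a set active-ingredient dose. Weeds were treated at 0.5-leaf stage after sowing or tuber planting; 2-leaf rice 4 days post-transplant. Control scored visually, 0 untreated to 100 complete kill, weeds day 14, rice day 21.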
# [6] = test system: crabgrass (Digitaria sanguinalis L.): DIGSA; experiment: Test Example 1 pre-emergence herbicidal activity, DIGSA; conditions: visually observed 20th to 23rd day after application
# Outline: as §1
# [7] = test system: green foxtail (Setaria viridis L.), SETVI; experiment: Test Example 2 post-emergence (foliage treatment) herbicidal activity, SETVI; conditions: 63 g a.i./ha
# Outline: as §2
# [8] = test system: green foxtail (Setaria viridis L.): SETVI; experiment: Test Example 1 pre-emergence herbicidal activity, SETVI; conditions: visually observed 20th to 23rd day after application
# Outline: as §1
# [9] = test system: japanese ribbon wapato (Sagittaria pygmaea: SA GPY); experiment: Test Example 3 water application herbicidal activity (paddy), SAGPY; conditions: 63 g a.i./ha, water application under submerged condition, tubers planted, visually observed 14th day after application; 0 = untreated control, 100 = complete kill
# Outline: as §3
# [10] = test system: wheat (Triticum aestivum L.): TRZAX; experiment: Test Example 1 pre-emergence herbicidal activity, TRZAX; conditions: visually observed 20th to 23rd day after application
# Outline: as §1
# [11] = test system: prickly sida (Sida spinosa L.): SEDSP; experiment: Test Example 1 pre-emergence herbicidal activity, SIDSP; conditions: visually observed 20th to 23rd day after application
# Outline: as §1
# [12] = test system: rice (Oryza sativa L.), ORYSA; experiment: Test Example 2 post-emergence (foliage treatment) herbicidal activity, ORYSA; conditions: 63 g a.i./ha
# Outline: (§4)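 Leaf stages at treatment differed per species: 1.1-2.1 for ECHCG, 1.0-2.0 for DIGSA, 0.1-1.5 for AMARE and 1.0-2 for ORYSA. Plants grew in pots of upland soil and were sprayed with wettable powder or emulsifiable concentrate in water (500 L/ha) plus spreader at 0.1% (v/v). Visual % control followed on days 20-23.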
# [13] = test system: redroot pigweed (Amaranthus retroflexus L.): AMARE; experiment: Test Example 1 pre-emergence herbicidal activity, AMARE; conditions: visually observed 20th to 23rd day after application
# Outline: as §1
# [14] = test system: barnyardgrass (Echinochloa crus-galli L.): ECHCG; experiment: Test Example 1 pre-emergence herbicidal activity, ECHCG; conditions: visually observed 20th to 23rd day after application
# Outline: as §1
# [15] = test system: soybean (Glycine max Merr.): GLXMA; experiment: Test Example 1 pre-emergence herbicidal activity, GLXMA; conditions: visually observed 20th to 23rd day after application
# Outline: as §1
# [16] = test system: redroot pigweed (Amaranthus retroflexus L.), AMARE; experiment: Test Example 2 post-emergence (foliage treatment) herbicidal activity, AMARE; conditions: 63 g a.i./ha
# Outline: as §4
# [17] = test system: velvetleaf (Abutilon theophrasti), ABUTH; experiment: Test Example 2 post-emergence (foliage treatment) herbicidal activity, ABUTH; conditions: 63 g a.i./ha
# Outline: as §2
# [18] = test system: japanese bulrush (Scirpus juncoides: SCPJO); experiment: Test Example 3 water application herbicidal activity (paddy), SCPJO; conditions: 63 g a.i./ha, water application under submerged condition at 0.5 leaf stage, visually observed 14th day after application; 0 = untreated control, 100 = complete kill
# Outline: as §3
# [19] = test system: crabgrass (Digitaria sanguinalis L.), DIGSA; experiment: Test Example 2 post-emergence (foliage treatment) herbicidal activity, DIGSA; conditions: 63 g a.i./ha
# Outline: as §4
# [20] = test system: rice (Oryza sativa L.): ORYSA; experiment: Test Example 1 pre-emergence herbicidal activity, ORYSA; conditions: visually observed 20th to 23rd day after application
# Outline: as §1
# [21] = test system: barnyardgrass (Echinochloa crus-galli L.), ECHCG; experiment: Test Example 2 post-emergence (foliage treatment) herbicidal activity, ECHCG; conditions: 63 g a.i./ha
# Outline: as §4
# [22] = test system: corn (Zea mays L.), ZEAMX; experiment: Test Example 2 post-emergence (foliage treatment) herbicidal activity, ZEAMX; conditions: 63 g a.i./ha
# Outline: as §2
# [23] = test system: barnyardgrass (Echinochiloa oryzicola: ECHOR); experiment: Test Example 3 water application herbicidal activity (paddy), ECHOR; conditions: 63 g a.i./ha, water application under submerged condition at 0.5 leaf stage, visually observed 14th day after application; 0 = untreated control, 100 = complete kill
# Outline: as §3
# [24] = test system: wheat (Triticum aestivum L.), TRZAX; experiment: Test Example 2 post-emergence (foliage treatment) herbicidal activity, TRZAX; conditions: 63 g a.i./ha
# Outline: as §2
SMILES,Pre-emergence Herbicidal Activity ABUTH (growth controlling degree) ([1]; Rate 63 g a.i./ha),"growth controlling degree, GLXMA [2]",Pre-emergence Herbicidal Activity ZEAMX (growth controlling degree) ([3]; Rate 63 g a.i./ha),"growth controlling degree, SIDSP [4]",growth controlling degrees (%) ORYSA [5],Pre-emergence Herbicidal Activity DIGSP (growth controlling degree) ([6]; Rate 63 g a.i./ha),"growth controlling degree, SETVI [7]",Pre-emergence Herbicidal Activity SETVI (growth controlling degree) ([8]; Rate 63 g a.i./ha),growth controlling degrees (%) SAGPY [9],Pre-emergence Herbicidal Activity TRZAX (growth controlling degree) ([10]; Rate 63 g a.i./ha),Pre-emergence Herbicidal Activity SIDSP (growth controlling degree) ([11]; Rate 63 g a.i./ha),"growth controlling degree, ORYSA [12]","growth controlling degree, AMARE [16]","growth controlling degree, ABUTH [17]",growth controlling degrees (%) SCPJO [18],"growth controlling degree, DIGSP [19]","growth controlling degree, ECHCO [21]","growth controlling degree, ZEAMX [22]",growth controlling degrees (%) ECHOR [23],"growth controlling degree, TRZAX [24]",also measured
COc1c(Cl)cc(F)c(-c2nn(C)c(OC(F)F)c2Cl)c1NC(=O)OCc1ccccc1Cl [Compound 1-63],30%,60%,0%,100%,40%,40%,100%,30%,70%,10%,20%,60%,100%,100%,70%,90%,100%,70%,100%,40%,Pre-emergence Herbicidal Activity AMARE (growth controlling degree) ([13]; Rate 63 g a.i./ha): 100%; Pre-emergence Herbicidal Activity ECHCG (growth controlling degree) ([14]; Rate 63 g a.i./ha): 30%; Pre-emergence Herbicidal Activity GLXMA (growth controlling degree) ([15]; Rate 63 g a.i./ha): 0%; Pre-emergence Herbicidal Activity ORYSA (growth controlling degree) ([20]; Rate 63 g a.i./ha): 0%
C#CCNc1c(OC)c(Cl)cc(F)c1-c1nn(C)c(OC(F)F)c1Cl [Compound 1-53],100%,95%,20%,100%,70%,100%,100%,100%,100%,20%,100%,95%,100%,100%,100%,100%,100%,100%,100%,40%,Pre-emergence Herbicidal Activity AMARE (growth controlling degree) ([13]; Rate 63 g a.i./ha): 100%; Pre-emergence Herbicidal Activity ECHCG (growth controlling degree) ([14]; Rate 63 g a.i./ha): 100%; Pre-emergence Herbicidal Activity GLXMA (growth controlling degree) ([15]; Rate 63 g a.i./ha): 30%; Pre-emergence Herbicidal Activity ORYSA (growth controlling degree) ([20]; Rate 63 g a.i./ha): 50%
COc1c(Cl)cc(F)c(-c2nn(C)c(OC(F)F)c2Cl)c1NC(=O)c1cccc(Cl)c1 [Compound 1-26],100%,70%,10%,100%,60%,98%,100%,100%,100%,10%,70%,80%,100%,100%,70%,60%,95%,40%,100%,30%,Pre-emergence Herbicidal Activity AMARE (growth controlling degree) ([13]; Rate 63 g a.i./ha): 100%; Pre-emergence Herbicidal Activity ECHCG (growth controlling degree) ([14]; Rate 63 g a.i./ha): 70%; Pre-emergence Herbicidal Activity GLXMA (growth controlling degree) ([15]; Rate 63 g a.i./ha): 10%; Pre-emergence Herbicidal Activity ORYSA (growth controlling degree) ([20]; Rate 63 g a.i./ha): 30%
COCCOC(=O)N(C(=O)OCCOC)c1c(OC)c(Cl)cc(F)c1-c1nn(C)c(OC(F)F)c1Cl [Compound 1-54],–,60%,–,100%,40%,–,80%,–,30%,–,–,98%,100%,100%,30%,70%,90%,50%,98%,30%,Pre-emergence Herbicidal Activity ABUTH (growth controlling degree) ([1]; Rate 125 g a.i./ha): 80%; Pre-emergence Herbicidal Activity ZEAMX (growth controlling degree) ([3]; Rate 125 g a.i./ha): 0%; Pre-emergence Herbicidal Activity DIGSP (growth controlling degree) ([6]; Rate 125 g a.i./ha): 100%; Pre-emergence Herbicidal Activity SETVI (growth controlling degree) ([8]; Rate 125 g a.i./ha): 100%; Pre-emergence Herbicidal Activity TRZAX (growth controlling degree) ([10]; Rate 125 g a.i./ha): 20%; Pre-emergence Herbicidal Activity SIDSP (growth controlling degree) ([11]; Rate 125 g a.i./ha): 95%; Pre-emergence Herbicidal Activity AMARE (growth controlling degree) ([13]; Rate 125 g a.i./ha): 100%; Pre-emergence Herbicidal Activity ECHCG (growth controlling degree) ([14]; Rate 125 g a.i./ha): 20%; Pre-emergence Herbicidal Activity GLXMA (growth controlling degree) ([15]; Rate 125 g a.i./ha): 10%; Pre-emergence Herbicidal Activity ORYSA (growth controlling degree) ([20]; Rate 125 g a.i./ha): 30%
